According to patent publication US20230357242A1, “COMPOUND AS AKT KINASE INHIBITOR” (CHIA TAI TIANQING PHARMACEUTICAL GROUP CO., LTD., priority 2020, published 2023):
Like-named read-outs stand apart in the source and are kept apart here.

Key:
[1] = Pharmacokinetic evaluation in rats; type: in vivo; set-up: Cl: unit not given here; conditions: SD rats; for bioavailability / AUC(0-inf) / AUC(0-t) / Cmax / Tmax / MRT last / Vd: rat, plasma; for bioavailability: oral, IG 10 mg/kg vs IV 1 mg/kg, read-out: Absolute bioavailability F %; for MRT last: read-out: MRT(0-t)
Experimental: SD rats, weight 180-220 g, after adaption for 7 days, were randomly divided into 4 groups of 3 […], each group was intragastrically (IG) administered with compound 28 or compound 30 at a dose of 10 mg/kg, or intravenously (IV) administered with compound 28 or compound 30 at a dose of 1 mg/kg. The animals to be tested (SD rats) were fasted for 12 h before administration and food was provided 4 h after administration, and water was freely drunk before and after the experiment and during the experiment.
After intragastric administration, about 0.1 mL of blood was taken from eye sockets at 15 min, 30 min, 1 h, 2 h, 3 h, 4 h, 6 h, 8 h, 10 h, and 24 h; after intravenous injection, about 0.1 mL of blood was taken from eye sockets at 5 min, 10 min, 30 min, 1 h, 2 h, 4 h, 6 h, 8 h, 10 h, and 24 h; 3 rats were collected at each time point, whole blood was collected, placed in centrifuge tubes containing EDTA-K2, and stored at 4° C. within 1 h, and the plasma was separated off by centrifugation at 4° C. and 4000 rpm for 10 min. All the plasma samples were collected and immediately stored at −20° C. for testing. 30 μL of the plasma sample to be tested and a standard curve sample were pipetted and added with 300 μL of acetonitrile solution containing an internal standard (20 ng/mL diazepam), shaken and mixed well for 5 min, and centrifuged at 13,000 rpm for 10 min. 80 μL of supernatant was taken and diluted with 80 μL of ultrapure water. After being mixed well, 2 μL of the resulting sample was taken for liquid chromatography-mass determination, and a chromatogram was recorded.
Oral and intravenous exposure of the compound of the present application was evaluated by in vivo pharmacokinetic experiment in rats.

[2] = system: AN3CA human endometrial cancer cells; test: Pharmacodynamics in subcutaneous xenograft tumor nude mouse model of AN3CA human endometrial cancer cells; type: in vivo, BALB/C nude mice; conditions: for in vivo tumor inhibition effect (in words) / Relative tumor volume (mean ± SD) / Tumor volume (mm^3) (mean ± SD): AN3CA xenograft; for in vivo tumor inhibition effect (in words): 20 mg/kg i.g. qd; for Relative tumor volume (mean ± SD) / Tumor volume (mm^3) (mean ± SD) / Weight change rate (%) (mean ± SD) / TGI (%) / T/C (%): day 14, 20 mg/kg i.g. qd 14 d; for Weight change rate (%) (mean ± SD): body weight; for TGI (%): by tumor weight, ** p < 0.01 vs control; for T/C (%): relative tumor proliferation rate
Experimental: SPF-grade female BALB/C nude mice (from Changzhou Cavens Laboratory Animal Ltd.) were inoculated subcutaneously at the right side armpit with 5×10^6 AN3CA cells (sourec: Nanjing Cobioer Biosciences Co., Ltd.).
The day of grouping was determined as do, and the intragastric administration was started on the grouping day, and the administration volume was 10 mL/kg. The solvent was: D5W (5% glucose solution). The tumor volume was measured 2-3 times a week, meanwhile, the mice were weighed and the data were recorded; the general behavior of the mice was observed and recorded every day. After the experiment was completed, the tumors were removed, weighed and photographed.
Calculation formula for tumor volume: Tumor volume (mm^3)=½×(a×b^2) (where a represents long diameter and b represents short diameter).
Relative tumor proliferation rate (T/C %) refers to the percentage of the relative tumor volume of the treatment and control groups at a certain time point. The calculation formula is as follows: T/C %=TRTV/CRTV×100% (TRTv: mean relative tumor volume (RTV) for treatment group; CRTV: mean RTV for vehicle control group; RTV=TVt/TV0, where TV0 is the tumor volume at grouping, TVt is the tumor volume after treatment).
The calculation formula for weight change rate (WCR) (%) is: WCR=(Wtt−Wt0)/Wt0×100%, where Wt0 is the body weight of the animal at grouping (i.e., d0), Wtt is the body weight of the animal at each measurement.
All experimental results are expressed as mean±SD (mean±standard deviation). The relative tumor volume of the treatment group was compared with that of the control group for any significant difference by T tests, wherein p<0.01 indicates a very significant difference.

SMILES | t1/2z ([1]; IG 10 mg/kg) | Cl ([1]; IV 1 mg/kg) | t1/2z ([1]; IV 1 mg/kg) | bioavailability [1] | AUC(0-inf) ([1]; po, IG 10 mg/kg) | AUC(0-t) ([1]; po, IG 10 mg/kg) | Cmax ([1]; po, IG 10 mg/kg) | Tmax ([1]; po, IG 10 mg/kg) | MRT last ([1]; po, IG 10 mg/kg) | AUC(0-inf) ([1]; IV 1 mg/kg) | AUC(0-t) ([1]; IV 1 mg/kg) | Vd ([1]; IV 1 mg/kg) | MRT last ([1]; IV 1 mg/kg) | in vivo tumor inhibition effect (in words) [2] | Relative tumor volume (mean ± SD) [2] | Tumor volume (mm^3) (mean ± SD) [2] | Weight change rate (%) (mean ± SD) [2] | TGI (%) [2] | T/C (%) [2]
CC(=O)N1CC2(C1)CN(c1cccc(-c3ccc4nc(-c5cccnc5N)n(-c5ccc(C6(N)CCC6)cc5)c4n3)c1F)C2 [Compound 28] | 3.93 ± 1.46 h | 5.75 ± 0.146 | 5.9 ± 2.11 h | 25% | 372 ± 197 ng·h/mL | 362 ± 195 ng·h/mL | 32.6 ± 12.4 ng/mL | 4.67 ± 1.15 h | 7.38 ± 0.43 h | 174 ± 4.37 ng·h/mL | 145 ± 11.1 ng·h/mL | 48.8 ± 16.8 L/kg | 2.12 ± 0.099 h | strong in vivo tumor inhibition effects | 10.5 ± 3.4 | 1267 ± 249 mm^3 | 4.9 ± 2.7% | 53.2%** | 44.3%
Nc1ncccc1-c1nc2ccc(-c3cccc(N4CCC(N5CCCC5=O)CC4)c3F)nc2n1-c1ccc(C2(N)CCC2)cc1 [Compound 30] | 5.43 ± 1.82 h | 7.23 ± 0.496 | 7.73 ± 0.440 h | 35.5% | 383 ± 106 ng·h/mL | 358 ± 109 ng·h/mL | 31.2 ± 8.8 ng/mL | 4.67 ± 1.15 h | 8.15 ± 0.73 h | 139 ± 9.21 ng·h/mL | 127 ± 9.69 ng·h/mL | 80.8 ± 8.9 L/kg | 5.57 ± 0.053 h | strong in vivo tumor inhibition effects | 9.7 ± 2.2 | 1242 ± 354 mm^3 | 2.3 ± 3.5% | 58.4%** | 40.9%
